US11963948B1, “2-(4-chlorophenyl)-4,5-bis(4-chlorophenyl)-1H-imidazole as an antimicrobial compound” (KING FAISAL UNIVERSITY, priority 2023, dated 2024)

Columns and labels:
Bacillus cereus = assay: Agar plate disc-diffusion, antibacterial activity, Bacillus cereus; type: cell-based; conditions: Bacillus cereus (Gram positive), nutrient agar, 37° C., 48 h
Experimental: (§1) The agar plate disc-diffusion method was applied. […] The discs were then placed onto the surface of agar plates (nutrient agar for bacteria and Sabouraud's dextrose agar for fungi) seeded with the test organism. Each plate contained 15 mL of the agar medium, previously seeded with 0.2 mL of the broth culture of each organism pregrown for 18 hours. The plates were incubated at 37° C. for 48 h, and 72 h for fungi. The inhibition zones were measured in mm. Discs impregnated with DMSO were used as a control, and its inhibition zone was subtracted from the tested compound actual inhibition zone.

Staphylococcus aureus = assay: Agar plate disc-diffusion, antibacterial activity, Staphylococcus aureus; type: cell-based; conditions: Staphylococcus aureus (Gram positive), nutrient agar, 37° C., 48 h
Experimental: as §1

Pseudomonas aeruginosa = assay: Agar plate disc-diffusion, antibacterial activity, Pseudomonas aeruginosa; type: cell-based; conditions: Pseudomonas aeruginosa (Gram negative), nutrient agar, 37° C., 48 h
Experimental: as §1

Escherichia coli = assay: Agar plate disc-diffusion, antibacterial activity, Escherichia coli; type: cell-based; conditions: Escherichia coli (Gram negative), nutrient agar, 37° C., 48 h
Experimental: as §1

Aspergillus flavus = assay: Agar plate disc-diffusion, antifungal activity, Aspergillus flavus; type: cell-based; conditions: Sabouraud's dextrose agar, 37° C., 72 h
Experimental: The agar plate disc-diffusion method was applied. Sterilized filter papers (6 mm in diameter) were wetted with 10 μL of a solution of 2-(4-chlorophenyl)-4,5-bis(4-chlorophenyl)-1H-imidazole (IV) to be tested, containing 10 mg/mL in DMSO, and the discs were allowed to air dry. The discs were then placed onto the surface of agar plates (nutrient agar for bacteria and Sabouraud's dextrose agar for fungi) seeded with the test organism. Each plate contained 15 mL of the agar medium, previously seeded with 0.2 mL of the broth culture of each organism pregrown for 18 hours. The plates were incubated at 37° C. for 48 h, and 72 h for fungi. The inhibition zones were measured in mm. Discs impregnated with DMSO were used as a control, and its inhibition zone was subtracted from the tested compound actual inhibition zone.

[1] = system: Chrysosporium keratinophilum; assay: Agar plate disc-diffusion, antifungal activity, Chrysosporium keratinophilum; type: cell-based; conditions: Sabouraud's dextrose agar, 37° C., 72 h
Experimental: as §1

[2] = A = concentration of comp. = 10,000 μL
[3] = B = concentration of comp. = 30,000 μL
[4] = C = concentration of comp. = 50,000 μL
[5] = A = concentration of comp. = 10,000 µg/mL

melting point [°C]	Compound	inhibition zone (Bacillus cereus; [2]) [mm]	inhibition zone (Bacillus cereus; [3]) [mm]	inhibition zone (Bacillus cereus; [4]) [mm]	inhibition zone (Staphylococcus aureus; [2]) [mm]	inhibition zone (Staphylococcus aureus; [3]) [mm]	inhibition zone (Staphylococcus aureus; [4]) [mm]	inhibition zone (Pseudomonas aeruginosa; [5]) [mm]	inhibition zone (Pseudomonas aeruginosa; [3]) [mm]	inhibition zone (Pseudomonas aeruginosa; [4]) [mm]	inhibition zone (Escherichia coli; [2]) [mm]	inhibition zone (Escherichia coli; [3]) [mm]	inhibition zone (Escherichia coli; [4]) [mm]	inhibition zone (Aspergillus flavus; [2]) [mm]	inhibition zone (Aspergillus flavus; [3]) [mm]	inhibition zone (Aspergillus flavus; [4]) [mm]	inhibition zone [1, 2] [mm]	inhibition zone [1, 3] [mm]	inhibition zone [1, 4] [mm]
–	O=C(O)c1cn(C2CC2)c2cc(N3CCNCC3)c(F)cc2c1=O [Cip., ciprofloxacin, reference compound]	29	30	42	43	44	53	29	30	53	30	39	60	29	30	42	29	30	53
211 to 212	Clc1ccc(-c2nc(-c3ccc(Cl)cc3)c(-c3ccc(Cl)cc3)[nH]2)cc1 [IV, 2-(4-chlorophenyl)-4,5-bis(4-chlorophenyl)-1H-imidazole]	25	27	40	17	23	34	24	26	43	25	30	48	23	25	33	22	27	40
